In PubChem BioAssay AID1645848:
Values after ≈ are worked out from the molar mass of the structure shown.

Details: buffer; pH 7.4; 6.0 h; 150.0 µM

solubility kinetic [µg/mL]	SMILES
< 1	COc1ccc(-c2ccc3nc(-c4ccccc4C)oc3c2)c(OC)c1OC
25.1 (≈ 76.8 µM)	CN1CCN(C2=Nc3cc(Cl)ccc3Nc3ccccc32)CC1
> 40	Cc1nc(NCc2ccco2)nc2c1C(=O)CC(C)C2 (stereo unspecified)
24.3 (≈ 70.1 µM)	Oc1ccccc1CN1CCNc2cc(Nc3ccccc3)ncc2C1
< 1	N#Cc1nc(-c2cccc3ccccc23)oc1NCc1ccccc1
< 1	CCCCOc1ccccc1C(=O)Nc1ccccc1C(=O)Nc1cccc(S(=O)(=O)C(F)(F)F)c1
< 1	c1ccc2[nH]c(Nc3nc(-c4ccncc4)nc4ccccc34)nc2c1
11.6 (≈ 32.6 µM)	NC(=O)C1CCN(c2ncc(-c3cccc(N4CCCC4)c3)s2)CC1
4.09 (≈ 10.7 µM)	c1c[nH]c(C2CCN(c3ncc(-c4ccc5c(c4)OCCCO5)s3)CC2)n1
< 1	O=C1Nc2ccccc2/C1=C\c1ccc([N+](=O)[O-])cc1
2.68 (≈ 6.25 µM)	COc1ccccc1N1CCN(C2CCCCC2NS(=O)(=O)c2ccccc2)CC1 (stereo unspecified)
< 1	COc1ccc(OC)c(N2C(=O)C(Cl)=C(N3CCCCC3)C2=O)c1
< 1	Cc1ccccc1C(=O)N1CCc2cc(-n3cc(NC(=O)Cc4ccccc4)cn3)ccc21
< 1	Cc1ccc2nc(-c3cc(NC(=O)c4ccc5c(c4)OCCO5)ccc3Cl)oc2c1
1.79 (≈ 4.47 µM)	Oc1ccc(CN2CC(CNc3ccccc3)C3(C2)CN(c2ccccc2)C3)cc1 (stereo unspecified)
< 1	Cc1ccc(S(=O)(=O)Nc2cnccc2C(=O)Nc2nc(-c3ccc(Cl)cc3)cs2)cc1
1.05 (≈ 2.25 µM)	CC(CNC(=O)C1CCN(Cc2cc3ccccc3n2Cc2ccccc2)CC1)c1ccccc1 (stereo unspecified)
< 1	O=C(Cc1ccc(Cl)c(Cl)c1)Nc1ccc([S+](=O)([O-])Nc2ccccn2)cc1
1.39 (≈ 3.19 µM)	Cc1ccc(-c2cc(C(=O)Nc3ccc(-c4noc(=O)[nH]4)cc3)c3ccccc3n2)cc1C
< 1	COC(=O)c1cc2occc2n1Cc1nc(-c2ccc(C)cc2)oc1C

solubility kinetic [µg/mL]	SMILES
< 1	Fc1cc(Nc2nc(-c3ccncc3)nc3ccccc23)ccc1C(F)(F)F
> 48	CN(C)c1cccc(-c2ncnc(N3CCC(C(N)=O)CC3)n2)c1
4.04 (≈ 9.67 µM)	CCOC(=O)CCNc1cc(N2CCc3ccccc3CC2)nc(-c2cccnc2)n1
< 1	Cc1ccc(SC2=NS(=O)(=O)c3ccccc32)c(C)c1
49.9 (≈ 139 µM)	COc1cccc(CN2CCNc3cc(Nc4ccccc4)ncc3C2)c1
< 1	COc1ccccc1NC(=O)C1=C(C)Nc2c(C(=O)Nc3cccc(C)c3)cnn2C1c1ccccc1Cl (stereo unspecified)
7.47 (≈ 20.5 µM)	Cc1c(-c2cccc(NC(=O)c3ccc(F)c(F)c3)c2)nc2ncccn12
16.8 (≈ 43 µM)	CC(C)Oc1ccc(-c2ccc(=O)n(CC(=O)NCCc3ccccc3)n2)cc1
45.6 (≈ 116 µM)	Nc1nc(Nc2ccc(S(N)(=O)=O)cc2)nn1C(=O)c1c(F)cccc1F
1.1 (≈ 2.46 µM)	O=S(=O)(Nc1nc2ccccc2s1)c1ccc(NCc2cccc(Cl)c2O)cc1
28.1	Cc1ccc(Nc2nc(NCCO)c3ccccc3n2)cc1C.Cl
< 1	Fc1cc(Nc2nc(-c3ccncc3)nc3ccccc23)ccc1-c1ccncc1
36 (≈ 117 µM)	Cc1cc(-c2nnc3n2CCCCC3)c(C)n1-c1ccncc1
< 1	Cc1ccc(NC(=O)N2CCN(c3nc(N)nc4sc(-c5cccnc5)nc34)CC2)cc1
27.4 (≈ 71.1 µM)	Cc1cc(-c2nnc3n2CCCCC3)c(C)n1-c1ccc(Br)cc1
< 1	Clc1ccc(-c2nnc(C3CCCCC3)o2)cc1
34.2 (≈ 107 µM)	Cc1cccc2nc(-c3ccccn3)c(Nc3ccc(F)cc3)n12
19.2 (≈ 41.9 µM)	Cn1cc(C2=C(c3cn(CCCSC(=N)N)c4ccccc34)C(=O)NC2=O)c2ccccc21
< 1	Cc1ccc(-n2nc3c(N4CCCC(C(=O)NCc5ccccc5C)C4)nnc(C)c3c2C)cc1 (stereo unspecified)
> 56	CCCN1CNc2c(c(=O)[nH]c(=S)n2Cc2ccc(OC)c(OC)c2)C1

SMILES	solubility kinetic [µg/mL]
CCOC(=O)c1ccc(NC(=O)CSc2nc3c(cc2C#N)N2CCC3CC2)cc1	1.15 (≈ 2.71 µM)
